Measured values taken from patent US20250316361A1, “SYSTEMS AND METHODS FOR ESTIMATING, FROM FOOD FREQUENCY QUESTIONNAIRE BASED NUTRIENTS INTAKE DATA, THE RELATIVE AMOUNTS OF FAECALIBACTERIUM PRAUSNITZII (FPRAU) IN THE GUT MICROBIOME ECOSYSTEM AND ASSOCIATED RECOMMENDATIONS TO IMPROVE FAECALIBACTERIUM PRAUSNITZII” (SOCIETE DES PRODUITS NESTLE S.A., priority 2021, published 2025).

What was measured:
[1] = test system: Faecalibacterium ASVs (ASV6); experiment: in vitro stool fermentation, 16S microbial rRNA gene sequencing of Faecalibacterium ASVs; type: cell-based, Faecalibacterium prausnitzii
Experimental: (§1) Stool samples were collected from a healthy adult donor under human study protocol. Upon the reception of the stool samples, small aliquots were prepared with storage buffer (PBS and 10% glycerol) and were stored at −80 degrees Celsius before use. For each experiment, 250 μL of stool aliquot was inoculated in a 10 mL Hungate tube filled with a minimal bacteria culture media under a strict anaerobic condition (Oxygen <3 ppm) inside of an anaerobic chamber. Different nutrients or nutrient combinations, shown in Table 1, were added to the culture media at time 0 and the tubes were incubated at 37 degrees Celsius for 24 or 48 hours. The growth of Faecalibacterium prausnitzii (F. prau) was examined by two methods: quantitative PCR specifically targeting F. prau and 16S microbial rRNA gene sequencing.
F. prau is heterogenic and genetically diverse. Thus, in this next experiment, we examined if nutrient or nutrient combinations favor specific F. prau to grow in a mixed community.

[2] = test system: Faecalibacterium prausnitzii (F. prau); experiment: in vitro stool fermentation, quantitative PCR specifically targeting F. prau; type: cell-based; conditions: stool inoculum in minimal media, anaerobic, 37 degrees Celsius
Experimental: as §1
First, we examined the absolute quantity of F. prau in the community after 24 or 48 hours (FIGS. 6A and 6B).

In the case of inulin, the “response of Faecalibacterium ASV1, 6, 9, 12 and 13” value ([1]; 14 genetically different Faecalibacterium found, time not stated) is reported as “responded positively”, the “response of F. prau ASV6 (figure legend)” value ([1]; samples collected after 24 hours and after 48 hours, FIG. 7) is reported as “responded” and the “absolute quantity of F. prau in the community versus control” value ([2]; 24 hours, FIG. 6A) is reported as “at least twice as much as control”. For the same substance, the “absolute quantity of F. prau in the community” value ([2]; 48 hours, FIG. 6B) was “able to maintain a high amount of F. prau”.
